Assay results: patent US8124770B2, “Fluorescent cellular markers” (priority 2009, dated 2012)
Like-named read-outs stand apart in the source and are kept apart here.

Assays:
Type in all cases: cell-based, human
[1] = tested on: Epidermoid carcinoma A431 cells; experiment: Cell cytotoxicity (growth inhibition) of BQS on A431 cells, Trypan Blue Exclusion; conditions: 5 to 100 uM, read-out: IC50 (inhibition of 50% of the cell population)
Protocol: Regarding the cytotoxicity, in order to determine the cell cytotoxicity of the BQS, duplicates cultures of 5×10^6 cells were seeded in 25 cm^2 flasks. The final volume on each plate was 9 ml of modified RPMI 1640 that contained the cell aliquot, media and BQS of present invention. Cells were then incubated for 4 hours to allow cells to adhere to the flask. Cells were cultured for 48 hours with BQS at concentration ranging from 5 to 100 uM. A negative control treated with ultra pure water (vehicle) was included in each experiment. […] At the end of the exposure period, media was removed and cultures rinsed twice with phosphate buffered saline (PBS) for removal of the compounds in solution. Cells detached with 5% trypsin enzyme, centrifuged, resuspended in fresh media and counted through a cell viability protocol, such as the Trypan Blue Exclusion analysis. Cell survival was calculated and plotted against time with the Microsoft Excel® software.

[2] = tested on: caspases 3 and 7 in A431 cells; experiment: Caspases 3 and 7 activation, Magic Red assay, on A431 cells; conditions: 48 hours of exposure, Cisplatin 3 uM positive control
Protocol: D. et al 2004; Blanc, C. et al 2000) making Cisplatin and Staurosporine appropriate positive controls for this assay. Cell culture media, such as RPMI 1640, modified with additional nutrients and additives such as Fetal Bovine serum and antibiotic has been added to improve the cell replication and prevent bacterial contamination was employed. […] The final volume on each plate was 9 ml of modified RPMI 1640 that contained the cell aliquot, media and drug. […] At the end of the treatment time cells were washed with PBS, detached with 5% trypsin enzyme and centrifuged. Cells were counted and aliquots were stained for an hour with cresyl violet (fluorochrome). […] Apoptotic cells (red) were distinguished from non apoptotic (non-fluorescent) using the negative and positive controls as reference.

[3] = tested on: DNA and mitochondria of A431 tumor cells; experiment: Intra cellular binding to organelles, wide-field fluorescence microscopy of A431 tumor cells; conditions: fluorescence microscope (FIG. 11)
A431 tumor cells = experiment: Auto-fluorescence on A431 tumor cells, inverted fluorescence microscopy; conditions: at IC50 concentration, monitored through 72 hour period, Olympus CKX41
Protocol: Regarding the autofluorencense, Ellipticine was selected as a fluorescent positive control since it is a structural analog of ABQS's. The elipticine's IC50 dose in A431 was determine by treating A431 cell cultures (in duplicates) at concentrations ranging from 0 to 50 μM. The final volume on each plate was 9 mL of modified RPMI 1640 that contained the cell aliquot, media and drug. Cells were exposed to ABQS's and Ellipticine at their IC50 concentrations, incubated and monitored through a 72 hour period by inverted microscopy. An Olympus CKX41 inverted fluorescent microscope (50 w Hg lamp), with U filter; 40× objective. Photographs were obtained at 13-17 seconds of exposure using the Q Capture Software. Auto-fluorescent cells were distinguished from non-auto-fluorescent ones using the negative and positive controls as reference.

[4] = Homo sapiens, A-431, 48 hours exposure

Compound | IC50 [1, 4] | Caspases 3 and 7 activation [2] | IC50 ([1]; 48 hours exposure) | capacity to bind to cellular organelles [3] | auto fluorescence in cells (A431 tumor cells)
Cc1ccc2sc3ccc4cc([N+](=O)[O-])c(Cl)cc4[n+]3c2c1 [NBQ95, 2-Chloro-10-methyl-3-nitrobenzothiazolo[3,2-a]quinolinium chloride] | 28 µM | – | – | – | –
7-Ethyl-3-nitrobenzimidazolo[3,2-a]quinolinium Chloride [NBQ38] | – | 22±7% | 36 µM | – | –
N.N.[Cl][Pt][Cl] [Cisplatin, reference compound] | – | 51±13% | – | – | –
Cc1ccc2sc3ccc4cc(N)c(Cl)cc4[n+]3c2c1.[Cl-] [ABQ95, 3-amino-2-chloro-10-methylbenzothiazolo[3,2-a]quinolinium chloride] | 36 µM | 46±6% | – | bind to DNA and mitochondria | –
CC[n+]1c2ccccc2n2c3ccc(N)cc3ccc21.[Cl-] [ABQ38, 3-amino-7-ethylbenzimidazo[3,2-a]quinolinium chloride] | – | 51±1% | 32 µM | bind to DNA and mitochondria | auto fluorescence
